Assay results from ChEMBL document CHEMBL1145171, “Synthesis, biological evaluation, and molecular modeling investigation of new chiral fibrates with PPARalpha and PPARgamma agonist activity” (J Med Chem, 2005).

Legend:
[1] = biological target: T1, Peroxisome proliferator-activated receptor gamma (Homo sapiens, UniProt P37231)
T1 sequence (P37231 whole entry): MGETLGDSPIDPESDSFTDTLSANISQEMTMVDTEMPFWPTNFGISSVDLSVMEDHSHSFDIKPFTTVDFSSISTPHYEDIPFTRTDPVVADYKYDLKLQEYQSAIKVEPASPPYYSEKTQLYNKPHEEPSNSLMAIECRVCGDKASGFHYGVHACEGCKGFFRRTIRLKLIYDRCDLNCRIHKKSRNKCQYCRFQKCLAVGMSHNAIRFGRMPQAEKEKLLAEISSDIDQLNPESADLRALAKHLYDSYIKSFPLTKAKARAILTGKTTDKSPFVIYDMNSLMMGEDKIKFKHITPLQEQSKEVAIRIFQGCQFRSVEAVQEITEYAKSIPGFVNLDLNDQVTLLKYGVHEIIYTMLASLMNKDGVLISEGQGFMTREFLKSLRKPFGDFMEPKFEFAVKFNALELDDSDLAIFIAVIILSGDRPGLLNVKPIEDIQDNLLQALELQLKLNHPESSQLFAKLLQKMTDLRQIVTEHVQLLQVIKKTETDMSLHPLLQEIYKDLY

[2] = biological target: T2, Peroxisome proliferator-activated receptor alpha (Homo sapiens, UniProt Q07869); experiment: Effective concentration against human PPARalpha expressed in HepG2 cells; assay type: cell-based
T2 sequence (Q07869 whole entry): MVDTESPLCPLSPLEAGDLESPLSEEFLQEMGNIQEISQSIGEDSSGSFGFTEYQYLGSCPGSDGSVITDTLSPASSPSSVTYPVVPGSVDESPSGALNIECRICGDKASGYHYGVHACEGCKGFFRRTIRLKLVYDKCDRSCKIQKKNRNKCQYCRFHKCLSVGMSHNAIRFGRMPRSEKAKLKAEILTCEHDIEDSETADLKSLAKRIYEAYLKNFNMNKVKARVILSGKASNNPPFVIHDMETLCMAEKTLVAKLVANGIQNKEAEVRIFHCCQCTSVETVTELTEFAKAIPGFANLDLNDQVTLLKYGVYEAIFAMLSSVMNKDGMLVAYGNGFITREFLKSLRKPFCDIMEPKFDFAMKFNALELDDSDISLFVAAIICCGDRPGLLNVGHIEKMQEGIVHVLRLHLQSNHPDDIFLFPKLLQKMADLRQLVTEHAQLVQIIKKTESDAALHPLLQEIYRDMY

[3] = biological target: T3, Peroxisome proliferator-activated receptor alpha (Homo sapiens) (UniProt Q07869); experiment: Efficacy against human PPARalpha expressed in HepG2 cells relative to Wy-14,643; assay type: cell-based
T3 sequence (whole entry): T2 sequence (Q07869 whole entry)

[4] = biological target: T4, Peroxisome proliferator-activated receptor alpha (Mus musculus) (UniProt P23204); experiment: Efficacy against murine PPARalpha relative to Wy-14,643
T4 sequence (whole entry): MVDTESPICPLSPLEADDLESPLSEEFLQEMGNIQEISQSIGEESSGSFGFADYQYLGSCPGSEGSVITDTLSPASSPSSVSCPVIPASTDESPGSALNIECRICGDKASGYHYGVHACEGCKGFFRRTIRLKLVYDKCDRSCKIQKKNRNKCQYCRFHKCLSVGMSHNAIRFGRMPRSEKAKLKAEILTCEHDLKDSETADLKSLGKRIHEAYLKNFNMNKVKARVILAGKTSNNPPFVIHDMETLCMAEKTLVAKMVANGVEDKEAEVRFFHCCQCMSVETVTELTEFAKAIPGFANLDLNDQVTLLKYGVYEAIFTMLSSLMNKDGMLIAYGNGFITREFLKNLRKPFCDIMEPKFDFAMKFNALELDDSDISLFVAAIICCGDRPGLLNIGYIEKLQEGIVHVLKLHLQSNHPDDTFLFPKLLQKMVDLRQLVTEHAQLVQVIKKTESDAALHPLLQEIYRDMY

[5] = biological target: T5, Peroxisome proliferator-activated receptor alpha (Mus musculus, UniProt P23204); experiment: Effective concentration against murine PPARalpha in transactivation assay
T5 sequence (P23204 whole entry): T4 sequence (whole entry)

[6] = biological target: T2, Peroxisome proliferator-activated receptor alpha; experiment: Effective concentration against human PPARalpha expressed in HepG2 cells; i.a = inactive at tested concentration; assay type: cell-based
[7] = biological target: T1, Peroxisome proliferator-activated receptor gamma; experiment: Effective concentration against human PPARgamma expressed in HepG2 cells; i.a = inactive at tested concentration; assay type: cell-based

Compound	EC50 [1] [µM]	EC50 [2] [µM]	Efficacy [3]	Efficacy [4]	EC50 [5] [µM]	EC50 [6]	EC50 [7]
O=C(O)[C@H](Cc1ccccc1)Oc1ccc(Cl)cc1	2.7	3.9	99.4	49.1	1.3		
O=C(O)[C@H](Cc1ccccc1)Oc1ccc(-c2ccccc2)cc1			124	99.3	0.2		
CCC[C@H](Oc1ccc2ccccc2c1)C(=O)O	7.2	8.4	95.6				
O=C(O)[C@H](Cc1ccccc1)Oc1ccc2ccccc2c1	1.5	1.4	130				
CC(=O)c1ccc(O[C@@H](Cc2ccccc2)C(=O)O)cc1	12.4	13.5	68.3				
CCC[C@@H](Oc1ccc2ccccc2c1)C(=O)O	12.5	3.9	10.5				
COc1ccc(O[C@@H](Cc2ccccc2)C(=O)O)cc1	20.1	2.5	80.7				
O=C(O)[C@H](Cc1ccccc1)Oc1ccc(-c2cccs2)cc1	1.6	0.9	93.2	70.7	0.15		
O=C(O)[C@H](Cc1ccccc1)Oc1ccc(CO)cc1	25.7	28.7	38.2				
CCc1ccc(O[C@@H](Cc2ccccc2)C(=O)O)cc1	3.6	0.7	114	127	0.35		
CC(C)(Oc1ccc(Cl)cc1)C(=O)O [CLOFIBRIC ACID]	309	39.6	89.7	67.2	42		
O=C(O)[C@H](Cc1ccccc1)Oc1ccc(C(F)(F)F)cc1	0.9	0.5	80.7	107	0.27		
CN(CCOc1ccc(CC2SC(=O)NC2=O)cc1)c1ccccn1 (centres undefined) [ROSIGLITAZONE]						Not Active	
CCC[C@H](OCc1ccc(-c2ccc(Cl)cc2)cc1)C(=O)O	8.9	3.9	29.8				
CCC[C@@H](OCc1ccc(-c2ccc(Cl)cc2)cc1)C(=O)O	5.4	4	36.6				
O=C(O)[C@@H](Cc1ccccc1)Oc1ccc(Cl)cc1	10.5	10.9	14.3				
Cc1cccc(Nc2cc(Cl)nc(SCC(=O)O)n2)c1C [PIRINIXIC ACID]			100	100			Not Active
